Here are results for 18 compounds from patent US12391687B2, “Five-and-six-membered heterocyclic compound and use thereof as protein receptor kinase inhibitor” (SHANGHAI ENNOVABIO PHARMACEUTICALS CO., LTD., priority 2018, dated 2025).

Structures are written as SMILES. Where only a bound is given, the exact number is not on record here.

What all share (assay type): biochemical
One assay concerns the target Recombinant human TRKC (Homo sapiens (Human), UniProt Q16288). Put plainly: In vitro activity test on TRKC kinase (HTRF kinEASE TK). Particulars: 25.64 μM ATP, 40 min, room temperature. On the procedure: (§1) Recombinant human TRKA, TRKB, TRKC proteins were purchased from Carna Biosciences. HTRF kinEASE TK kit was purchased from Cisbio Bioassays. Synergy Neo 2 of Biotek was used to read the plate.
(§2) The tested compounds were subjected to 3-fold serial dilution to reach a final concentration of 1 μM to 0.05 nM (10 concentrations), duplicates for each concentration; and the DMSO concentration in the detection reaction was 1%.
0.037 ng/μL TRKC protein kinase, 1 μM TK Substrate-biotin polypeptide substrate, 25.64 μM ATP, 1× enzymatic buffer, 5 mM MgCl2, and 1 mM DTT. The detection plate was White Proxiplate 384-Plus plate (PerkinElmer), the reaction was incubated at room temperature for 40 min, and the assay volume was 10 μL.
(§3) 10 μL of detection reagent (containing 0.125 μM SA-XL665 and 5 μL 1×TK-Antibody) was added to the plate and incubated overnight at room temperature. Synergy Neo 2 was used to read the plate.
(§4) The 665/620 Ratio was converted according to the following formula into inhibition rate (%)=(1−Ratiotest/Ratiomax)×100%. Ratiomax was the value of positive controls without tested compound, and Ratiotest was the value of each concentration of different compounds. IC50 (nM) data was obtained by 4 parameter curve fitting (see Table 1).

Another assay deals with Recombinant human TRKA (Homo sapiens (Human), UniProt P04629). Put plainly: In vitro activity test on TRKA kinase (HTRF kinEASE TK). Particulars: 14.68 μM ATP, 40 min, room temperature. On the procedure: as §1, §2
0.2 ng/μL TRKA protein kinase, 1 μM TK Substrate-biotin polypeptide substrate, 14.68 μM ATP, 1×enzymatic buffer, 5 mM MgCl2, and 1 mM DTT. The assay plate was White Proxiplate384-Plus plate (PerkinElmer), and the reaction was incubated at room temperature for 40 min, and the assay volume was 10 μL.
as §3, §4
Background: Time-resolved FRET reads energy transfer from a long-lived donor to a nearby acceptor.

The next assay deals with Recombinant human TRKB (Homo sapiens (Human), UniProt Q16620). Put plainly: In vitro activity test on TRKB kinase (HTRF kinEASE TK). The following applies: 4.77 μM ATP, 50 min, room temperature. As for the experimental part: as §1, §2
0.037 ng/μL TRKB protein kinase, 1 μM TK Substrate-biotin polypeptide substrate, 4.77 μM ATP, 1× enzymatic buffer, 5 mM MgCl2, 1 mM MnCl2 and 1 mM DTT. The assay plate was White Proxiplate 384-Plus plate (PerkinElmer), the reaction was incubated at room temperature for 50 min, and the assay volume was 10 μL.
as §3, §4

Assay [1] concerns the target recombinant human TRKA (G595R) (Homo sapiens (Human), UniProt P04629, G595R). The experiment in a line: In vitro activity test on mutant TRKA (G595R) (HTRF kinEASE TK). Particulars: 4.5 μM ATP, 30 min, room temperature; read-out: TRKA (G595R) IC 50. On the procedure:
The recombinant human TRKA (G595R), TRKA (G667C) and TRKC (G623R) proteins were purchased from SignalChem. HTRF kinEASE TK kit was purchased from Cisbio Bioassays. Synergy Neo 2 of Biotek was used to read the plate.
The tested compounds were subjected to 4-fold serial dilution to reach a final concentration of 1 μM to 0.004 nM (10 concentrates), duplicates for each concentration; and the final concentration of DMSO in the reaction was 1%.
0.12 ng/μL TRKA (G595R) kinase, 1 μM TK Substrate-biotin polypeptide substrate, 4.5 μM ATP, 1× enzymatic buffer, 5 mM MgCl2, and 1 mM DTT. The assay plate was White Proxiplate384-Plus plate (PerkinElmer), and the reaction was incubated at room temperature for 30 min, and the assay volume was 10 μL.
10 μL of detection reagent (containing 0.125 μM SA-XL665 and 5 μL 1×TK-Antibody) was added to the plate and incubated overnight at room temperature, and Synergy Neo 2 was used to read the plate.
The value of 665/620 Ratio minus the value of negative control wells without enzyme, then the obtained value was converted according to the following formula into inhibition rate (%)=(1−Ratiotest/Ratiomax)×100%. Ratiomax was the value of positive controls without tested compound, and Ratiotest was the value of each concentration of different compounds. IC50 (nM) data was obtained by 4 parameter curve fitting (see Table 3).

Chain of Recombinant human TRKB (Q16620 32-822): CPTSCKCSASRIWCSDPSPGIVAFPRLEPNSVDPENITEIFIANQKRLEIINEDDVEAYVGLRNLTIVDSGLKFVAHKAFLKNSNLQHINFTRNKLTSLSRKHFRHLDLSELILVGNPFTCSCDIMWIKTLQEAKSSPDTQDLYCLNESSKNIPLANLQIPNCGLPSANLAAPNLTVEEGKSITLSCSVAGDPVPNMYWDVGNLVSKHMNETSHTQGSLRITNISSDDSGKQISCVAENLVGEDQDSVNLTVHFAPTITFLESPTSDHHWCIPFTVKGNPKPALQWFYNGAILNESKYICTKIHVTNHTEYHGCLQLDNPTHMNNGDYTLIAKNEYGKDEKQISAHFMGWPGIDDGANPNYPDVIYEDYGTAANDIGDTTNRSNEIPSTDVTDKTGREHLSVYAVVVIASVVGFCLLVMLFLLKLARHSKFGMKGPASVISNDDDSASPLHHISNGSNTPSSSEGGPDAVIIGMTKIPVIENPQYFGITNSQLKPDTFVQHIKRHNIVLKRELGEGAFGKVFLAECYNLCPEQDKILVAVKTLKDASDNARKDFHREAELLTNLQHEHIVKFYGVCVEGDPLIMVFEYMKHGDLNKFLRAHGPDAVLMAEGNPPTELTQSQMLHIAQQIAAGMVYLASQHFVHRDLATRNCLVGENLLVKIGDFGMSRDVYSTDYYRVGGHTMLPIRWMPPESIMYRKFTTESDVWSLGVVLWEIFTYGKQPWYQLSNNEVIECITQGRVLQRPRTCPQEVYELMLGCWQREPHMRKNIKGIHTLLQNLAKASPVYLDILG
Chain of Recombinant human TRKC (Q16288 32-839): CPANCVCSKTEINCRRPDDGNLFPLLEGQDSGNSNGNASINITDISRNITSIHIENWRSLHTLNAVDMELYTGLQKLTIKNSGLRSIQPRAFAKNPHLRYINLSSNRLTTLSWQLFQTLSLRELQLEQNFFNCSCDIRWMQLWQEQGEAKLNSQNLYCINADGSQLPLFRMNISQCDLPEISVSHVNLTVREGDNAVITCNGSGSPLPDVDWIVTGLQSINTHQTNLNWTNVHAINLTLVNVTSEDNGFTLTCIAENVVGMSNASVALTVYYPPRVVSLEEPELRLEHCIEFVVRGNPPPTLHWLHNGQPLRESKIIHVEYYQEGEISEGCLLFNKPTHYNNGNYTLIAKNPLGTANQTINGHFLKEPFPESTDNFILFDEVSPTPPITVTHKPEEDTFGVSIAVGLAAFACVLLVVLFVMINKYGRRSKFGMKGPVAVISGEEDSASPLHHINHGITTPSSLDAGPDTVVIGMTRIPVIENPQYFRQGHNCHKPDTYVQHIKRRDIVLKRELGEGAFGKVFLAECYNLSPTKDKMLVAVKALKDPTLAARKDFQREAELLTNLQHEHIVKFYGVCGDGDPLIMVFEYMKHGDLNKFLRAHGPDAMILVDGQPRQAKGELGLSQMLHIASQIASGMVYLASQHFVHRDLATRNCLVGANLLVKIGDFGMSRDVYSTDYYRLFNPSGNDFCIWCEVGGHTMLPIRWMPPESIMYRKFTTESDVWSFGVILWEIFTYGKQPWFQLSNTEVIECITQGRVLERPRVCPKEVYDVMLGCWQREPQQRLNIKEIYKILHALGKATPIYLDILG
Chain of recombinant human TRKA (G595R) (P04629 33-796 G595R): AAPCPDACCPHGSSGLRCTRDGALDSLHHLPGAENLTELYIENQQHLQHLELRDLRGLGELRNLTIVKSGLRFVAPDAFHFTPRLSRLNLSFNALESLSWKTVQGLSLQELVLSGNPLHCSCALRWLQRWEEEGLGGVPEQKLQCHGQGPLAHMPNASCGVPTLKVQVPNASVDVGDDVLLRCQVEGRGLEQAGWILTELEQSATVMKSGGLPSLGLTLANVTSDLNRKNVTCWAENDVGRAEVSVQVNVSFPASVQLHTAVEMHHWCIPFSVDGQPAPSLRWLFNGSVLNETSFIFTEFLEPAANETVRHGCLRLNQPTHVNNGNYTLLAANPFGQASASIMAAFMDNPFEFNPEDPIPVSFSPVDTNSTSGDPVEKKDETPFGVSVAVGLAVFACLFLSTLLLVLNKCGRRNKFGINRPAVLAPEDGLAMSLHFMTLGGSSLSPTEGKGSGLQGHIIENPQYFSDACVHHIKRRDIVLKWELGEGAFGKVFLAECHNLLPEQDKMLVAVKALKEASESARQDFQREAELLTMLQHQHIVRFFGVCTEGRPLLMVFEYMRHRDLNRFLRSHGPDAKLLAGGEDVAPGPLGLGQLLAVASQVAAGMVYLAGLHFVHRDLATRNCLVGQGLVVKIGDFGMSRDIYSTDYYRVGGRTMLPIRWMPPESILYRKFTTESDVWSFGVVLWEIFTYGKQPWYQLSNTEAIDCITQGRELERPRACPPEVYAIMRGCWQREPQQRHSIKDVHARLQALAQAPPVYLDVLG
Chain of Recombinant human TRKA (P04629 33-796): as the sequence (P04629 33-796 G595R) above, with R563G counted along it

For `Fc1ccc(F)c([C@H]2C[C@H](F)CN2c2n[nH]c3ncc(-c4cnn(COCc5ccccc5)c4)cc23)c1` [Example 31, 5-(1-((benzyloxy)methyl)-1H-pyrazol-4-yl)-3-((2R,4S)-2-(2,5-difluorophenyl)-4-fluoropyrrolidin-1-yl)-1H-pyrazolo[3,4-b]pyridine], the IC50 on Recombinant human TRKC was less than 10 nM; at Recombinant human TRKA, less than 10 nM; at Recombinant human TRKB, less than 1 nM; in assay [1], less than 10 nM.
Turning to `Fc1ccc(F)c([C@H]2C[C@H](F)CN2c2n[nH]c3ncc(-c4cnn(CC5CNC5)c4)cc23)c1` [Example 34, 5-(1-(azetidin-3-ylmethyl)-1H-pyrazol-4-yl)-3-((2R,4S)-2-(2,5-difluorophenyl)-4-fluoropyrrolidin-1-yl)-1H-pyrazolo[3,4-b]pyridine], the IC50 is less than 1 nM at Recombinant human TRKC, less than 1 nM at Recombinant human TRKA, less than 1 nM at Recombinant human TRKB and less than 10 nM in assay [1].
As to `CC(C)OC(=O)c1cnc2[nH]nc(N3C[C@@H](F)C[C@@H]3c3cc(F)ccc3F)c2c1` [Example 19, isopropyl 3-((2R,4S)-2-(2,5-difluorophenyl)-4-fluoropyrrolidin-1-yl)-1H-pyrazolo[3,4-b]pyridine-5-carboxylate], the IC50 (on Recombinant human TRKC; on Recombinant human TRKA; on Recombinant human TRKB; in assay [1]) was less than 1 nM throughout.
Turning to `COCc1nnc(-c2cnc3c(c2)c(N2C[C@@H](F)C[C@@H]2c2cc(F)ccc2F)nn3COC)o1` [Example 38, 2-(3-((2R,4S)-2-(2,5-difluorophenyl)-4-fluoropyrrolidin-1-yl)-1-(methoxymethyl)-1H-pyrazolo[3,4-b]pyridin-5-yl)-5-(methoxymethyl)-1,3,4-oxadiazole], the IC50 at Recombinant human TRKC is less than 100 nM; on Recombinant human TRKA, less than 100 nM; on Recombinant human TRKB, less than 10 nM.
As for `O=C(N[C@H]1CC[C@@H](O)CC1)c1cnc2[nH]nc(N3CCC[C@@H]3c3cc(F)ccc3F)c2c1` [Example 14, 3-((R)-2-(2,5-difluorophenyl)pyrrolidin-1-yl)-N-((1s,4S)-4-hydroxycyclohexyl)-1H-pyrazolo[3,4-b]pyridine-5-carboxamide], the IC50 on Recombinant human TRKC, at Recombinant human TRKA and on Recombinant human TRKB was less than 10 nM in each case.
Regarding `COCCNC(=O)c1cnc2[nH]nc(N3CCC[C@@H]3c3cc(F)ccc3F)c2c1` [Example 8, (R)-3-(2-(2,5-difluorophenyl)pyrrolidin-1-yl)-N-(2-methoxyethyl)-1H-pyrazolo[3,4-b]pyridine-5-carboxamide], the IC50 is less than 10 nM at Recombinant human TRKC, less than 50 nM at Recombinant human TRKA and less than 10 nM on Recombinant human TRKB.
For `NC(=O)c1cnc2[nH]nc(N3CCC[C@@H]3c3cc(F)ccc3F)c2c1` [Example 4, (R)-3-(2-(2,5-difluorophenyl)pyrrolidin-1-yl)-1H-pyrazolo[3,4-b]pyridine-5-carboxamide], the IC50 at Recombinant human TRKC, at Recombinant human TRKA and at Recombinant human TRKB was less than 10 nM throughout.
Take `O=C(Nc1cnc2[nH]nc(N3CCC[C@@H]3c3cc(F)ccc3F)c2c1)c1ccc(N2CC[C@H](O)C2)nc1` [Example 3, N-(3-((R)-2-(2,5-difluorophenyl)pyrrolidin-1-yl)-1H-pyrazolo[3,4-b]pyridin-5-yl)-6-((S)-3-hydroxypyrrolidin-1-yl)nicotinamide]: the IC50 is less than 50 nM on Recombinant human TRKC, less than 50 nM on Recombinant human TRKA and less than 100 nM on Recombinant human TRKB.
Regarding `O=C(NCCO)c1cnc2[nH]nc(N3CCC[C@@H]3c3cc(F)ccc3F)c2c1` [Example 6, (R)-3-(2-(2,5-difluorophenyl)pyrrolidin-1-yl)-N-(2-hydroxyethyl)-1H-pyrazolo[3,4-b]pyridine-5-carboxamide], the IC50 on Recombinant human TRKC, on Recombinant human TRKA and at Recombinant human TRKB was less than 50 nM in each case.
As to `O=C(NCCCO)c1cnc2[nH]nc(N3CCC[C@@H]3c3cc(F)ccc3F)c2c1` [Example 9, (R)-3-(2-(2,5-difluorophenyl)pyrrolidin-1-yl)-N-(3-hydroxypropyl)-1H-pyrazolo[3,4-b]pyridine-5-carboxamide], the IC50 on Recombinant human TRKC is less than 50 nM; at Recombinant human TRKA it was less than 50 nM; on Recombinant human TRKB, less than 10 nM.
Turning to `CN(C)C(=O)c1cnc2[nH]nc(N3C[C@@H](F)C[C@@H]3c3cc(F)ccc3F)c2c1` [Example 18, 3-((2R,4S)-2-(2,5-difluorophenyl)-4-fluoropyrrolidin-1-yl)-N,N-dimethyl-1H-pyrazolo[3,4-b]pyridine-5-carboxamide], the IC50 on Recombinant human TRKC, at Recombinant human TRKA and at Recombinant human TRKB was less than 500 nM throughout.
As to `CC(C)(O)CNC(=O)c1cnc2[nH]nc(N3CCC[C@@H]3c3cc(F)ccc3F)c2c1` [Example 10, (R)-3-(2-(2,5-difluorophenyl)pyrrolidin-1-yl)-N-(2-hydroxy-2-methylpropyl)-1H-pyrazolo[3,4-b]pyridine-5-carboxamide], the IC50 on Recombinant human TRKC is less than 10 nM; at Recombinant human TRKA, less than 50 nM; on Recombinant human TRKB, less than 10 nM.
As for `O=C(Nc1cnc2[nH]nc(N3CCC[C@@H]3c3cc(F)ccc3F)c2c1)N1CC[C@H](O)C1` [Example 2, (S)—N-(3-((R)-2-(2,5-difluorophenyl)pyrrolidin-1-yl)-1H-pyrazolo[3,4-b]pyridin-5-yl)-3-hydroxypyrrolidine-1-carboxamide], the IC50 on Recombinant human TRKC, on Recombinant human TRKA and at Recombinant human TRKB was less than 500 nM in each case.
On to `NNC(=O)c1cnc2[nH]nc(N3C[C@@H](F)C[C@@H]3c3cc(F)ccc3F)c2c1` [Example 39, 3-((2R,4S)-2-(2,5-difluorophenyl)-4-fluoropyrrolidin-1-yl)-1H-pyrazolo[3,4-b]pyridine-5-carbohydrazide], for which the IC50 on Recombinant human TRKC, on Recombinant human TRKA and at Recombinant human TRKB was less than 1 nM throughout.
With `CNC(=O)CC1(O)CCN(C(=O)Nc2cnc3[nH]nc(N4CCC[C@@H]4c4cc(F)ccc4F)c3c2)C1` (stereo partly drawn) [Example 1, N-(3-((R)-2-(2,5-difluorophenyl)pyrrolidin-1-yl)-1H-pyrazolo[3,4-b]pyridin-5-yl)-3-hydroxy-3-(2-(methylamino)-2-oxoethyl)pyrrolidine-1-carboxamide], the IC50 on Recombinant human TRKC, at Recombinant human TRKA and on Recombinant human TRKB was less than 500 nM each time.
`O=C(NCCCCO)c1cnc2[nH]nc(N3CCC[C@@H]3c3cc(F)ccc3F)c2c1` [Example 12, (R)-3-(2-(2,5-difluorophenyl)pyrrolidin-1-yl)-N-(4-hydroxybutyl)-1H-pyrazolo[3,4-b]pyridine-5-carboxamide]: the IC50 was less than 10 nM at Recombinant human TRKC, less than 10 nM on Recombinant human TRKA and less than 50 nM at Recombinant human TRKB.
Turning to `CC1(O)CCN(c2cnc(C(=O)Nc3cnc4[nH]nc(N5C[C@@H](F)C[C@@H]5c5cc(F)ccc5F)c4c3)cn2)C1` (stereo partly drawn) [Example 16, N-(3-((2R,4S)-2-(2,5-difluorophenyl)-4-fluoropyrrolidin-1-yl)-1H-pyrazolo[3,4-b]pyridin-5-yl)-5-(3-hydroxy-3-methylpyrrolidin-1-yl)pyrazine-2-carboxamide], the results for the IC50 at Recombinant human TRKC, at Recombinant human TRKA and on Recombinant human TRKB were less than 10 nM, less than 1 nM and less than 10 nM, respectively.
On to `O=C1CC(n2cc(-c3cnc4[nH]nc(N5C[C@@H](F)C[C@@H]5c5cc(F)ccc5F)c4c3)cn2)CCN1` (stereo partly drawn) [Example 23, 4-(4-(3-((2R,4S)-2-(2,5-difluorophenyl)-4-fluoropyrrolidin-1-yl)-1H-pyrazolo[3,4-b]pyridin-5-yl)-1H-pyrazol-1-yl)piperidin-2-one], for which the IC50 on Recombinant human TRKC, on Recombinant human TRKA and at Recombinant human TRKB was less than 10 nM in each case.
